Activity calls are given as the source filed them.
Experiments:
[1] = target: Potassium voltage-gated channel subfamily KQT member 2 (Rattus norvegicus, UniProt O88943); assay: blockers of KCNQ2 channel current – cell-based, automated electrophysiology, set II, rat KCNQ2, dose response (AID 588637); type: functional
Caspase-3 = target: T1, Caspase-3 (Homo sapiens, UniProt P42574); type: functional;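 note: Dose-response selectivity test against caspase-3 for candidate inhibitors of sentrin-specific proteases (SENPs)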
T1 sequence (P42574 whole entry): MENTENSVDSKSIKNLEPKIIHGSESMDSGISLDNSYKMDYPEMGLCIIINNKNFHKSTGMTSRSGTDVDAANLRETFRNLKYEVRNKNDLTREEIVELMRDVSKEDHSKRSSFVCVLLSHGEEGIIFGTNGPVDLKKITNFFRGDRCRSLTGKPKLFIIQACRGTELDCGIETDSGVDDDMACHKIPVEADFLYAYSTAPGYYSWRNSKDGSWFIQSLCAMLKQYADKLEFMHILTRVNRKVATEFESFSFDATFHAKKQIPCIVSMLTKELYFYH

[2] = target: T2, Sentrin-specific protease 6 (Homo sapiens, UniProt Q9GZR1); type: functional;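 note: Luminescence-based dose-response confirmatory assay of SENP6 inhibition, following up an ultra-high-throughput screen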
T2 sequence (Q9GZR1 whole entry): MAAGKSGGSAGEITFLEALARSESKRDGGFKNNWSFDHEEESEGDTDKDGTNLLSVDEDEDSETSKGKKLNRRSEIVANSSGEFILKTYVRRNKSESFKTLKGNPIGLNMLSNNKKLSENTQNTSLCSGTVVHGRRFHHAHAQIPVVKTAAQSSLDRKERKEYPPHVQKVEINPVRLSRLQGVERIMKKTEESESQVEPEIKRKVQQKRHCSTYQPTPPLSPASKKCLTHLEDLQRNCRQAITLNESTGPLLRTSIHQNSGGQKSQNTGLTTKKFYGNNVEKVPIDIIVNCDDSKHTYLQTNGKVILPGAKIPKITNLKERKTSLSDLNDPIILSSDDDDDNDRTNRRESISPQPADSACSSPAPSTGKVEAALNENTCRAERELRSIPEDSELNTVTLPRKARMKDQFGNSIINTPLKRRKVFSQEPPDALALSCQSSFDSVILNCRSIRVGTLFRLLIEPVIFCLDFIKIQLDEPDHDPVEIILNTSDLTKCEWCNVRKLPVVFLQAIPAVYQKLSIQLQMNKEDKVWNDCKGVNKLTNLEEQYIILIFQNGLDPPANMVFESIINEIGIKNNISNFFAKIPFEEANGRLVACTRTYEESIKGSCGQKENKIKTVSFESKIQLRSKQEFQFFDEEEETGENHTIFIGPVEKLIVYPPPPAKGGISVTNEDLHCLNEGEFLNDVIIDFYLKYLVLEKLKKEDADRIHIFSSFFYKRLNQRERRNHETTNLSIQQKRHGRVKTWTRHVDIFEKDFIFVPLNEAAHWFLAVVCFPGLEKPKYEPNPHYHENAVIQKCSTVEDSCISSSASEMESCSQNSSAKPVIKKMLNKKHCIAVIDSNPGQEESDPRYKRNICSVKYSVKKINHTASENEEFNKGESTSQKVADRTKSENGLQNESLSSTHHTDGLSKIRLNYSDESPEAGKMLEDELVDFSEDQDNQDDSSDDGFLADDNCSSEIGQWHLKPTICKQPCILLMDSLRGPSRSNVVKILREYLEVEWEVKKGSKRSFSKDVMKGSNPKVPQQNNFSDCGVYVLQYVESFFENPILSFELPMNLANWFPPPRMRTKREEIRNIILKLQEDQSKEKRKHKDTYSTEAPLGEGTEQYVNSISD

[3] = target: T3, Sentrin-specific protease 8 (Homo sapiens, UniProt Q96LD8); type: functional;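 note: luminescence read-out of SENP8 inhibition, dose-response confirmation following an ultra-high-throughput screen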
T3 sequence (Q96LD8 whole entry): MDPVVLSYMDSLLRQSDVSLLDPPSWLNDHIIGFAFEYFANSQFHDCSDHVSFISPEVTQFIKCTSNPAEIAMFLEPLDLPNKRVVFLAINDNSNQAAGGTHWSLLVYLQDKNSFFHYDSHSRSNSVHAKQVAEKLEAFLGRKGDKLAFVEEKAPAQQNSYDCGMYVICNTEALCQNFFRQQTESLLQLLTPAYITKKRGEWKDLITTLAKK

[4] = target: T4, Sentrin-specific protease 7 (Homo sapiens, UniProt Q9BQF6); type: functional;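 note: Luminescence-based dose-response confirmation of ultra-high-throughput screening hits, measuring inhibition of SENP7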
T4 sequence (Q9BQF6 whole entry): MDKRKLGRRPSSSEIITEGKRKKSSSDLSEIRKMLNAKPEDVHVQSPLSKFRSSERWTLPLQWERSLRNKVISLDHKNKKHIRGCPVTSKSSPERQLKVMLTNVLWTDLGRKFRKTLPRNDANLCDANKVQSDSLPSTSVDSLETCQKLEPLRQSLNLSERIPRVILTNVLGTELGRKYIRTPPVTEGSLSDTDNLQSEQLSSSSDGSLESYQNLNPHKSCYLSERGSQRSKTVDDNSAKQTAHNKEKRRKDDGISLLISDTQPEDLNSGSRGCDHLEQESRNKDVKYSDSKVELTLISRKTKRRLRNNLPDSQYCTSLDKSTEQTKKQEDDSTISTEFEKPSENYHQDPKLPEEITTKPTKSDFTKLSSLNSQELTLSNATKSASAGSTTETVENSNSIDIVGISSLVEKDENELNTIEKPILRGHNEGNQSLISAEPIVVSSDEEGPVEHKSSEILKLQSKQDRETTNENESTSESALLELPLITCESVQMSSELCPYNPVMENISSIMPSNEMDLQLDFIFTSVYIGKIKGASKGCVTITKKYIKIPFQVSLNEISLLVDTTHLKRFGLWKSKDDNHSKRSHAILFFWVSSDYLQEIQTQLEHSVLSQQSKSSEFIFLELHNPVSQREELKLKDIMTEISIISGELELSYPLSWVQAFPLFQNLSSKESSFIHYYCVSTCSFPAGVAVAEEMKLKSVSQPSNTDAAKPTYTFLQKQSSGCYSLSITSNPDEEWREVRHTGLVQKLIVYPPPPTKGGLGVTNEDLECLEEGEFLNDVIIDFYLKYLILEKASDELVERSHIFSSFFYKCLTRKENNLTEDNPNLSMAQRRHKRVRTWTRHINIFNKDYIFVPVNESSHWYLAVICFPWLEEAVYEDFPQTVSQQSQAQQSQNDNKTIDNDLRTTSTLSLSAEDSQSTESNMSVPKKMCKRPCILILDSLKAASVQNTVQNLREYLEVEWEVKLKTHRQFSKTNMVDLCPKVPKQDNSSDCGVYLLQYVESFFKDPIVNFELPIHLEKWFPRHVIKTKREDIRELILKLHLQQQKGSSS

[5] = target: T5, Endoribonuclease toxin MazF (Escherichia coli K-12, UniProt P0AE70); assay: activation of MazEF endoribonuclease cleavage – biochemical, fluorescence, single-stranded RNA substrate, uHTS hits, dose response (AID 588481); type: functional
T5 sequence (P0AE70 whole entry): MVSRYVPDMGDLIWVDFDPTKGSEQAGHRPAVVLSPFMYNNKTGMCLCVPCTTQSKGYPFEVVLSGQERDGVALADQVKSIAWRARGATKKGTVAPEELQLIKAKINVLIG

[6] = target: T5, Endoribonuclease toxin MazF; assay: substrate-only fluorescence increase artefacts – biochemical, single-stranded RNase substrate, counter-screen for MazEF activator project, dose response (AID 588502); type: functional
HEK293 [7] = assay: cells; settings: Homo sapiens
HEK293 [8] = assay: cells; settings: Homo sapiens; remark: listed apart in the source
[9] = target: Benomyl/methotrexate resistance protein (Candida albicans, UniProt P28873); assay: Candida albicans Mdr1 pump inhibition curves – singleplex, Cherry Pick1 hits, dose response (AID 588608); type: functional
[10] = target: T6, Rac GTPase-activating protein 1 (Homo sapiens, UniProt Q9H0H5); assay: blockers of MgcRacGAP-driven Rac1 GTP hydrolysis – biochemical, ADP Hunter fluorescence, primary and confirmatory, confirmation (AID 624330); type: functional
T6 sequence (Q9H0H5 whole entry): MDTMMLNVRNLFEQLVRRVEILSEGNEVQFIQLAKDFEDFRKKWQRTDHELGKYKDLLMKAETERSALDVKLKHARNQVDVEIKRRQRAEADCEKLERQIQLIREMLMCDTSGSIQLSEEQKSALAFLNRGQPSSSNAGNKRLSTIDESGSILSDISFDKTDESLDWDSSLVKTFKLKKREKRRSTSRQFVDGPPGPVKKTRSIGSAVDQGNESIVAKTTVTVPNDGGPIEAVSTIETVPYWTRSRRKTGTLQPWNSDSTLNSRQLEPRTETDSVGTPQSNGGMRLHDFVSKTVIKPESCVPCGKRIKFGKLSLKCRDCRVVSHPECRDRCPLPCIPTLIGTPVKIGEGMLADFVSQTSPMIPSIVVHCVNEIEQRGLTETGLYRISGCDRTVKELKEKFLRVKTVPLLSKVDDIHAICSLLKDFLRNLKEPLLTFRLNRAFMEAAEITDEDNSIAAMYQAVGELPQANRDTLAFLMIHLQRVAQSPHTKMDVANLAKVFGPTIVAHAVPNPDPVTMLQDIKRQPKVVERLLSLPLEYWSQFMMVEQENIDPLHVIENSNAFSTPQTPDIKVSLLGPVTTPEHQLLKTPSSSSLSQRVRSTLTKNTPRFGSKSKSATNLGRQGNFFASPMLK

[11] = target: G-protein coupled receptor 55 (Homo sapiens, UniProt Q9Y2T6); assay: selective activators of receptor GPR55 – imaging, U2OS cells, beta-arrestin-GFP redistribution, primary screen (AID 1961); type: functional
[12] = Luminescence Cell-Based Dose Retest to Confirm Inhibitors of Cancer Stem Cells. [Related pubchem assays (depositor defined):AID2717, AID2721]; type: functional; settings: Homo sapiens
[13] = target: T7, Type-1 angiotensin II receptor (Homo sapiens, UniProt P30556); assay: antagonism of angiotensin II type 1 receptor – cell-based, uHTS hits, selectivity assay for APJ receptor antagonist project, dose response (AID 463214); type: functional;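 note: antagonist potency against angiotensin II stimulated AT1 response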
T7 sequence (P30556 whole entry): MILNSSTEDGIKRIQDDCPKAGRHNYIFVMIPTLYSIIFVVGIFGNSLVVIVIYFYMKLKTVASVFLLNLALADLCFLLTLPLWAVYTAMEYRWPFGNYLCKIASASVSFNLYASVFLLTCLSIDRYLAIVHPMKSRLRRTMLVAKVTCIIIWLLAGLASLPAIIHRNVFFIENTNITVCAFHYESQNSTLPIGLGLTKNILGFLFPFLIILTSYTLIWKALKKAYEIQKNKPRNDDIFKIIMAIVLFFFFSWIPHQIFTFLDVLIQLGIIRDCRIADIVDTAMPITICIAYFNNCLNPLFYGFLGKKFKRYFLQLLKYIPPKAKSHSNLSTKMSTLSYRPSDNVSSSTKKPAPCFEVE

[14] = microbe, parasite or virus in culture; type: functional; settings: Mycobacterium tuberculosis
[15] = target: T8, Polyadenylate-binding protein 1 (Homo sapiens, UniProt P11940); assay: MLLE domain peptide-binding blockers, IC50 – biochemical, fluorescence polarization, FITC-PAM2 peptide, dose response (AID 602259); type: functional; settings: read-out: IC50_Mean
Beta-galactosidase = Beta-galactosidase (Escherichia coli, UniProt Q8VNN2); assay: PubChem AID 485352; type: functional
[16] = target: T8, Polyadenylate-binding protein 1; assay: MLLE binding blockers, Cy5 peptide tracer – biochemical, fluorescence polarization, Cy5-PAM2 peptide, secondary, miRNA deadenylation inhibitor project, dose response (AID 602260); type: functional; settings: read-out: IC50_Mean
[17] = target: SWI/SNF-related matrix-associated actin-dependent regulator of chromatin subfamily A member 2 (Homo sapiens, UniProt P51531); assay: Luminescence-based cell-based high throughput dose response assay to identify activators of the function of SWI/SNF related, matrix associated, actin dependent regulator of chromatin, subfamily a, member 2 (SMARCA2, BRM).; type: functional
[18] = Counterscreen for activators of the function of SWI/SNF related, matrix associated, actin dependent regulator of chromatin, subfamily a, member 2 (SMARCA2, BRM): Luminescence-based cell-based high throughput dose response assay to identify non-selective compounds using the VP16 reporter assay.; type: functional
[19] = target: Dual specificity protein phosphatase 3 (Homo sapiens, UniProt P51452); assay: VHR phosphatase inhibition, dose response, selectivity assay for STEP inhibitor project, biochemical (AID 602374); type: functional; settings: read-out: IC50_Mean
[20] = target: Tyrosine-protein phosphatase non-receptor type 5 (Homo sapiens, UniProt P54829); assay: PTPN5 enzyme inhibition – biochemical, fluorescence intensity, uHTS hits, confirmation (AID 602372); type: functional; settings: read-out: IC50_Mean
[21] = target: Tyrosine-protein phosphatase non-receptor type 11 (Homo sapiens, UniProt Q06124); assay: PTPN11 enzyme inhibitors – biochemical, selectivity assay for STEP inhibitor project, dose response (AID 602367); type: functional; settings: read-out: IC50_Mean
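Throughout, for AC50: cells exposed to compound for roughly 70 hours or longer before luminescence read.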

Beta-galactosidase, sequence (Q8VNN2 whole entry): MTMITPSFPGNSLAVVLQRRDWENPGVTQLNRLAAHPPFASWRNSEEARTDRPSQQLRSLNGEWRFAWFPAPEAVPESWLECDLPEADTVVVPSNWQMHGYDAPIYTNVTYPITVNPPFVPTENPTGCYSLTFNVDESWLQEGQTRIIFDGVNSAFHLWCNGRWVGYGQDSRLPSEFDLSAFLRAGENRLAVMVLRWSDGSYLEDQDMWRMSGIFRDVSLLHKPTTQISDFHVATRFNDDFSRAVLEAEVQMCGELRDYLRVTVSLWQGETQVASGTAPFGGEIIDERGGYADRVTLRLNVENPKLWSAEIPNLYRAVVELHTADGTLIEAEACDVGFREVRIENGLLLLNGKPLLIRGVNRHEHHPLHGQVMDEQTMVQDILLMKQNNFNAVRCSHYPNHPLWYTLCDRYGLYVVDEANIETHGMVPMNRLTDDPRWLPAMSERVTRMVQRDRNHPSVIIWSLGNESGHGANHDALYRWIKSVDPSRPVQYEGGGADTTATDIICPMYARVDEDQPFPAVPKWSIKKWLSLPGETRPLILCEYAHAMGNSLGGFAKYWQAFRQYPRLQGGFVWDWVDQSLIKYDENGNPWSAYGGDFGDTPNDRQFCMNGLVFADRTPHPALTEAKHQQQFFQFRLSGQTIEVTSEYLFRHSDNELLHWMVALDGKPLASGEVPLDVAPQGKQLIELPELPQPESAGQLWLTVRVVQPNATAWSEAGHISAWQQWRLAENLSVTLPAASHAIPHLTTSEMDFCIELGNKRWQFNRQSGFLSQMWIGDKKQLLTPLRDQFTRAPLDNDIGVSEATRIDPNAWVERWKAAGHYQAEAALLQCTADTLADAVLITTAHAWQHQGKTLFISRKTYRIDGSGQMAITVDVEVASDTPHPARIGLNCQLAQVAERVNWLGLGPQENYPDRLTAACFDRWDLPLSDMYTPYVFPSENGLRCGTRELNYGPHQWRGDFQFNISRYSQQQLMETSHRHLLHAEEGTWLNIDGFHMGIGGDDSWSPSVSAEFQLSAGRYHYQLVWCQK
T8 sequence (P11940 whole entry, the tested form may be a part): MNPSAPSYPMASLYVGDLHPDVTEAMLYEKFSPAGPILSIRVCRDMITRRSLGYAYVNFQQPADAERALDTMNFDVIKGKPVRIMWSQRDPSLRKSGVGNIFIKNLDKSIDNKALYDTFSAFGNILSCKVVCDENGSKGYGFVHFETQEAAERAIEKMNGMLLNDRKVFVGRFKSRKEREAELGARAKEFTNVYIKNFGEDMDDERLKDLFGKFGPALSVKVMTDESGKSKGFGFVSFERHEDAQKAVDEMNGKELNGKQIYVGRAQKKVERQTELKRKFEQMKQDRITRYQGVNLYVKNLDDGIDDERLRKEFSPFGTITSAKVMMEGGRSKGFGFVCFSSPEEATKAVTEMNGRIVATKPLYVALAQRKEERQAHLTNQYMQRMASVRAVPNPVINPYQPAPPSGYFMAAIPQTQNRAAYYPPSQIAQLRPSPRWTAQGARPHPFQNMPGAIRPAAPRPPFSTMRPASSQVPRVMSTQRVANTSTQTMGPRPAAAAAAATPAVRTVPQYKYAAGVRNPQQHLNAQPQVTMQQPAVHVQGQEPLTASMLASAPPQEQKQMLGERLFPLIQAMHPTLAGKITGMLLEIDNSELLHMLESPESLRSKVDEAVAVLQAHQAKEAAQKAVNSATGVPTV
Potassium voltage-gated channel subfamily KQT member 2, sequence (O88943 whole entry): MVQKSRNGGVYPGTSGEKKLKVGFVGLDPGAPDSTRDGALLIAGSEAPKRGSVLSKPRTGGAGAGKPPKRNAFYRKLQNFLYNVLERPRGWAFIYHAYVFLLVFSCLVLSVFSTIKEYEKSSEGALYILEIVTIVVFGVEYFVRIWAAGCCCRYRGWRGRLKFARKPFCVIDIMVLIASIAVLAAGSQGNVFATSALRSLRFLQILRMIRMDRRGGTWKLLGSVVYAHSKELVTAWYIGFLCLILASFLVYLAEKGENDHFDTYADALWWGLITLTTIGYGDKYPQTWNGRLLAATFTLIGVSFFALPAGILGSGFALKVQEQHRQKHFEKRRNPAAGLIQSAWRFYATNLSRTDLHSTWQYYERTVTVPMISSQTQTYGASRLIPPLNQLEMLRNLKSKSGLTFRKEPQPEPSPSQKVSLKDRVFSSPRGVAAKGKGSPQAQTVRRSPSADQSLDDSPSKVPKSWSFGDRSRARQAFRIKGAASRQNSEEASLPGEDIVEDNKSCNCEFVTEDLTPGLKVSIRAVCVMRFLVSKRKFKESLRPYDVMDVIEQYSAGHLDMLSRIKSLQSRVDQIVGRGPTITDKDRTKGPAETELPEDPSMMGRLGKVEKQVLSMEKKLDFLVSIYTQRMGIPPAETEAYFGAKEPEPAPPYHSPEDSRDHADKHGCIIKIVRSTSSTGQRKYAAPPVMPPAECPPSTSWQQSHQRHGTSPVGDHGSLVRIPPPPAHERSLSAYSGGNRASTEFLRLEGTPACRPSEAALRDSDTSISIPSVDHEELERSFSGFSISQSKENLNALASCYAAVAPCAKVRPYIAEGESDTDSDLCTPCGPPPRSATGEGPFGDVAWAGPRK
Tyrosine-protein phosphatase non-receptor type 11, sequence (Q06124 whole entry): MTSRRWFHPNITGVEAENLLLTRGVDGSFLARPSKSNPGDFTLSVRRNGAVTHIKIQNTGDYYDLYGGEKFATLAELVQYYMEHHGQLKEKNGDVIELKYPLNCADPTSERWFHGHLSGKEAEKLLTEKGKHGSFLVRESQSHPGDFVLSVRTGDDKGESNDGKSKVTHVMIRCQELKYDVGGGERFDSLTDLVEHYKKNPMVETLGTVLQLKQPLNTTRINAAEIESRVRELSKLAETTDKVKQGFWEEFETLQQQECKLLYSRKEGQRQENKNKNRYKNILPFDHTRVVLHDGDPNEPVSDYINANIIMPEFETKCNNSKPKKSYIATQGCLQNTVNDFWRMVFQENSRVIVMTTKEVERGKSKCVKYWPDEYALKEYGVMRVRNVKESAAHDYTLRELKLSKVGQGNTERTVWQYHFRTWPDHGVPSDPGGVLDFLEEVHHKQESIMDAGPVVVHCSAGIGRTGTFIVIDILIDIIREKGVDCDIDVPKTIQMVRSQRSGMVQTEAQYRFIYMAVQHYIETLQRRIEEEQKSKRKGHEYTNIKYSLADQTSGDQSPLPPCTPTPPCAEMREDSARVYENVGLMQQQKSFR
G-protein coupled receptor 55, sequence (Q9Y2T6 whole entry): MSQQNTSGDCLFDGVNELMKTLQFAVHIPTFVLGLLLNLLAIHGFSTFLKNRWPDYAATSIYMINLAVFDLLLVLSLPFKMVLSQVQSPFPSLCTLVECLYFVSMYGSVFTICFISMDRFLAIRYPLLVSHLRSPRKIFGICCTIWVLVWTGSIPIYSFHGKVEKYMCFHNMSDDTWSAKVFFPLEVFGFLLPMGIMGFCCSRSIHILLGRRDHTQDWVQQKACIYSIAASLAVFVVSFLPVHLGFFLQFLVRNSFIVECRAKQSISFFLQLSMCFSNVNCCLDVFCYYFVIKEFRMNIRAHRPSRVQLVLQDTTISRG
Dual specificity protein phosphatase 3, sequence (P51452 whole entry): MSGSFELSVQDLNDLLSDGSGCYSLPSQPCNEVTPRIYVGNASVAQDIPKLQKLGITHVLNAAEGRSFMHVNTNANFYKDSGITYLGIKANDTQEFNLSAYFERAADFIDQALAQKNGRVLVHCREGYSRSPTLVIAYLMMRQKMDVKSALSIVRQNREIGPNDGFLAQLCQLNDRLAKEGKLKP
Tyrosine-protein phosphatase non-receptor type 5, sequence (P54829 whole entry): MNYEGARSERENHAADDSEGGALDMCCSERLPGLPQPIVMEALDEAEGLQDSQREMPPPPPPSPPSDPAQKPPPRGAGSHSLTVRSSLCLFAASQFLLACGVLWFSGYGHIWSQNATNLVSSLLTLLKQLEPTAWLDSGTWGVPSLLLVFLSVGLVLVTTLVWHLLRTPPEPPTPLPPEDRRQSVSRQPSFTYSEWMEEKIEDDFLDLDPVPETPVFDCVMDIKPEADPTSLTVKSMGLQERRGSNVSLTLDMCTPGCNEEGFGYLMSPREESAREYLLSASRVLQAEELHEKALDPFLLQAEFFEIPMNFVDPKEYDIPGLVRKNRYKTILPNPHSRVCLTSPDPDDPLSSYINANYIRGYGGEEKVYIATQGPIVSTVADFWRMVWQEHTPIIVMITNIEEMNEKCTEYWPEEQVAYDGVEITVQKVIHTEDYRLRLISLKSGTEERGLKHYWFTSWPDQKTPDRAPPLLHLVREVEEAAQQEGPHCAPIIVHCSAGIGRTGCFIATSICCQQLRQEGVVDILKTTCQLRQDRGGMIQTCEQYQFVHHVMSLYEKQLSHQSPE
Benomyl/methotrexate resistance protein, sequence (P28873 whole entry): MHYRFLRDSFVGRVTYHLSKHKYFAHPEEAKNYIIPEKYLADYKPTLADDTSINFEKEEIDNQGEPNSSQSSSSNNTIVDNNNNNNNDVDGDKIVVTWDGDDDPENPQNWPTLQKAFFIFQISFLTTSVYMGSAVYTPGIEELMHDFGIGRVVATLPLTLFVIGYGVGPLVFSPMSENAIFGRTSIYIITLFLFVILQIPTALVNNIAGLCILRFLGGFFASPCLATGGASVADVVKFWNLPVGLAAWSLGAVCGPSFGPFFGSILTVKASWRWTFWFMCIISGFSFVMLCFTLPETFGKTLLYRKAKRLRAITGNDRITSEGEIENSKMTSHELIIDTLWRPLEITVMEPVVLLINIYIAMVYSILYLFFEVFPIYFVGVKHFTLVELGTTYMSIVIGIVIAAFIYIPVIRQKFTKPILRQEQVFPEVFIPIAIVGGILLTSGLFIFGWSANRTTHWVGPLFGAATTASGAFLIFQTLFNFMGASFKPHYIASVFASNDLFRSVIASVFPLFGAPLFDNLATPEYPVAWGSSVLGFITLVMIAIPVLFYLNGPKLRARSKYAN

CC1Oc2ccccc2N(CC(=O)N(Cc2ccccc2)Cc2ccccn2)C1=O (stereo unspecified)
IC50 [1]: 1 µM (active)

COc1cccc(Nc2nc(-c3ccc4c(c3)OCCO4)cs2)c1
IC50 (Caspase-3): 40.2 µM (active)
IC50 [2]: 20.3 µM (active)
IC50 [3]: 30.3 µM (active)
IC50 [4]: 7.97 µM (active)

O=c1/c(=C\c2ccc3c(c2)OCO3)sc2n1CCCN=2
IC50 (Caspase-3): 17 µM (active)
IC50 [2]: 33.6 µM (active)
IC50 [3]: 34.1 µM (active)
IC50 [4]: 12.6 µM (active)

Cn1c(CNc2ccc(O)cc2)nc2ccccc21
EC50 [5]: > 99 µM (inactive)
EC50 [6]: > 99 µM (inactive)

O=C1/C(=C/c2cccs2)Sc2ccccc21
IC50 (Caspase-3): 3.44 µM (active)
IC50 [2]: 2.36 µM (active)
IC50 [3]: 2.41 µM (active)
IC50 [4]: 2.11 µM (active)

COc1ccc(/N=c2\oc3cc(O)ccc3cc2C(=O)NCC2CCCO2)c(OC)c1 (stereo unspecified)
EC50 [5]: > 99 µM (inactive)
EC50 (HEK293 [7]): > 59.6 µM (inactive)
EC50 [6]: > 99 µM (inactive)
EC50 (HEK293 [8]): > 59.6 µM (inactive)

COCCn1c(=S)[nH]c2sc3c(c2c1=O)CCCC3
EC50 [9]: 0.012 µM (active)
IC50 [10]: 38.7 µM (active)

CCOC(=O)N1CCC(N(CCOC)C(=O)Nc2ccc(Cl)c(Cl)c2)CC1
IC50 [1]: 0.99 µM (active)
EC50 [11]: 2.65 µM (active)

Cc1csc(N=C(S)Nc2cccc(Cl)c2)n1
AC50 [12]: 7.09 µM (active)
IC50 [13]: > 40 µM (not active)
CC50 [14]: 33.1 µM (active)
IC50 [15]: > 66 µM (inactive)
EC50 (Beta-galactosidase): > 40 µM (inactive)
IC50 [16]: > 66 µM (inactive)

O=C(CNc1cccc(Cl)c1)c1ccc(Br)cc1
IC50 [13]: 15 µM (active)
EC50 (Beta-galactosidase): > 40 µM (inactive)
EC50 [17]: > 91.2 µM (inactive)
EC50 [18]: > 91.2 µM (inactive)

O=C(COc1ccc(/C=N/NC(=O)c2ccncc2)cc1)Nc1ccc([N+](=O)[O-])cc1
IC50 [19]: 21.7 µM (inactive)
IC50 [20]: > 80 µM (inactive)
IC50 [21]: 6.08 µM (active)
